# Measured values taken from US8933079B2, “Pyridone and pyridazinone derivatives as anti-obesity agents” (Boehringer Ingelheim International GmbH, priority 2012, dated 2015).
# Experiments:
# [1] = system: human hepatocytes; assay: Metabolic degradation in human hepatocytes (intrinsic clearance); format: in vitro ADME; conditions: human hepatocyte suspension, 1 μM test compound, 5% human serum, 6 h
# Method: Determination of Metabolic Degradation in Human Hepatocytes for Compounds of the Invention
# The metabolic degradation of the test compound is determined in a hepatocyte suspension. Hepatocytes (typically cryopreserved) are incubated in an appropriate buffer system (e.g. Dulbecco's modified eagle medium plus 3.5 μg glucagon/500 mL, 2.5 mg insulin/500 mL and 3.75 mg/500 mL hydrocortison) containing 5% human serum.
# Following a (typically) 30 min preincubation in an incubator (37° C., 10% CO2), 5 μl of test compound solution (80 μM; from 2 mM in DMSO stock solution diluted 1:25 with medium) are added into 395 μl hepatocyte suspension (cell density in the range 0.25-5 Mio cells/mL, typically 1 Mio cells/mL; final concentration of test compound 1 μM, final DMSO concentration 0.05%). The cells are incubated for six hours (incubator, orbital shaker) and samples (25 μl) are taken at 0, 0.5, 1, 2, 4 and 6 hours. Samples are transferred into acetonitrile and pelleted by centrifugation (5 min). The supernatant is transferred to a new 96-deepwell plate, evaporated under nitrogen and resuspended.
# Decline of parent compound is analyzed by HPLC-MS/MS.
# CLint is calculated as follows CL_[…]=Dose/AUC=(CO/CD)/(AUD+clast/k)×1000/60. C0: initial concentration in the incubation [μM], CD: cell density of vital cells [10e6 cells/mL], AUD: area under the data [μM×h], clast: concentration of last data point [μM], k: slope of the regression line for parent decline [h−1].
# [2] = target: hMCH-1R (Homo sapiens (Human), UniProt Q99705); assay: MCH-1 receptor binding test (125I-MCH binding to hMCH-1R transfected cell membranes); conditions: for IC50: competition with 100 pM 125I-MCH, membranes of CHO/Galpha16 cells stably transfected with hMCH-1R
# Chain of hMCH-1R (Q99705 whole entry): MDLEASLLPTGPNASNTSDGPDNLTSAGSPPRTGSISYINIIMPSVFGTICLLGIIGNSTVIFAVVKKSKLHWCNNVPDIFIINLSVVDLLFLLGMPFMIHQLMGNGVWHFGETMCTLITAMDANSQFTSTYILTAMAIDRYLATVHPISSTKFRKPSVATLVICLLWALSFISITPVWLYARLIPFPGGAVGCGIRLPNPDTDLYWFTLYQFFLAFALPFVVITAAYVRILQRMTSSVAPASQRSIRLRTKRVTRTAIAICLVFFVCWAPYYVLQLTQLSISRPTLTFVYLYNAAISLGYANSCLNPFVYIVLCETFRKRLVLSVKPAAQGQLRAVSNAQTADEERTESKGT
SMILES,CLint [1] [μL/min/10e6 cells],IC50 [2] [nM],"Kd ([2]; 125I-MCH on hMCH-1R membranes, read-out: KD value of the radioligand) [nM]"
"Cc1cc(CN(C)C)ccc1C(=O)Cn1ccc(OCc2ccccc2)cc1=O [Example 1.8, 4-Benzyloxy-1-[2-(4-dimethylaminomethyl-2-methyl-phenyl)-2-oxo-ethyl]-1H-pyridin-2-one]",3.9,17,
"Cc1cc(CN(C)C)ccc1C(=O)Cn1ccc(OCc2ccc(Cl)cn2)cc1=O [Example 3.9, 4-(5-Chloro-pyridin-2-ylmethoxy)-1-[2-(4-dimethylaminomethyl-2-methyl-phenyl)-2-oxo-ethyl]-1H-pyridin-2-one]",13.8,32,
"Cc1cc(CN(C)C)ccc1C(=O)Cn1ccc(OCc2ccc(Br)cn2)cc1=O [Example 4.1, 4-(5-Bromo-pyridin-2-ylmethoxy)-1-[2-(4-dimethylaminomethyl-2-methyl-phenyl)-2-oxo-ethyl]-1H-pyridin-2-one]",20.7,17,
"Cc1cc(CN(C)C)ccc1C(=O)Cn1ncc(OCc2ccccc2)cc1=O [Example 5.2, 5-Benzyloxy-2-[2-(4-dimethylaminomethyl-2-methyl-phenyl)-2-oxo-ethyl]-2H-pyridazin-3-one]",4.8,9,
"COc1ccc(COc2cnn(CC(=O)c3ccc(CN(C)C)cc3)c(=O)c2)nc1 [Example 9.1c, 2-[2-(4-Dimethylaminomethyl-phenyl)-2-oxo-ethyl]-5-(5-methoxy-pyridin-2-ylmethoxy)-2H-pyridazin-3-one, reference compound]",27,,
"CN(C)Cc1ccc(C(=O)Cn2ccc(OCc3ccc(Cl)cn3)cc2=O)cc1 [Example 9.2 in WO2009/103478, reference compound]",68.8,,
"CN(C)Cc1ccc(C(=O)Cn2ccc(OCc3ccc(Br)cn3)cc2=O)cc1 [Example 11.2 in WO2009/103478, reference compound]",66.1,,
COc1ccc(COc2ccn(CC(=O)c3ccc(CN(C)C)cc3C)c(=O)c2)nc1 [Example 11.2],,57,
COc1ccc(COc2ccn(CC(=O)c3ccc(CN4CCCC4)cc3C)c(=O)c2)nc1 [Example 11.3],,26,
CCNCc1ccc(C(=O)Cn2ccc(OCc3ccc(OC)cn3)cc2=O)c(C)c1 [Example 11.4],,54,
"CN(C)Cc1ccc(C(=O)Cn2ncc(OCc3ccc(Br)cn3)cc2=O)cc1 [Example 12.2 in WO2009/103478, reference compound]",57.6,,
"CN(C)Cc1ccc(C(=O)Cn2ccc(OCc3ccccc3)cc2=O)cc1 [Example 29.8 in WO2008/22979, reference compound]",24.3,,
"CN(C)Cc1ccc(C(=O)Cn2ncc(OCc3ccccc3)cc2=O)cc1 [Example 32.7 in WO2008/22979, reference compound]",16.8,,
"CN(C)Cc1ccc(C(=O)Cn2ncc(OCc3ccc(F)cn3)cc2=O)cc1 [Example 33.5 in WO2008/22979, reference compound]",10.0,,
"CSCC[C@@H]1NC(=O)[C@@H](NC(=O)[C@H](CCCNC(=N)N)NC(=O)[C@H](CC(C)C)NC(=O)[C@H](CCSC)NC(=O)[C@H](CC(=O)O)NC(=O)[C@H](Cc2ccccc2)NC(=O)[C@@H](N)CC(=O)O)CSSC[C@@H](C(=O)N[C@@H](Cc2c[nH]c3ccccc23)C(=O)N[C@@H](CCC(N)=O)C(=O)N[C@H](C(=O)O)C(C)C)NC(=O)[C@@H]2CCCN2C(=O)[C@H](CCCNC(=N)N)NC(=O)[C@H](Cc2ccc(O)c(I)c2)NC(=O)[C@H](C(C)C)NC(=O)[C@H](CCCNC(=N)N)NC(=O)CNC(=O)[C@H](CC(C)C)NC1=O [^125I-MCH, reference compound]",,,0.156

# Continued, values first:
CLint [1] [μL/min/10e6 cells],IC50 [2] [nM],"Kd ([2]; 125I-MCH on hMCH-1R membranes, read-out: KD value of the radioligand) [nM]",SMILES
1.7,50,,Cc1cc(CN(C)C)ccc1C(=O)Cn1ncc(OCc2ccc(F)cn2)cc1=O [Example 6.5]
11.5,16,,"Cc1cc(CN(C)C)ccc1C(=O)Cn1ncc(OCc2ccc(Br)cn2)cc1=O [Example 8.3, 5-(5-Bromo-pyridin-2-ylmethoxy)-2-[2-(4-dimethylaminomethyl-2-methyl-phenyl)-2-oxo-ethyl]-2H-pyridazin-3-one]"
3.3,28,,"COc1ccc(COc2cnn(CC(=O)c3ccc(CN(C)C)cc3C)c(=O)c2)nc1 [Example 9.1, 2-[2-(4-Dimethylaminomethyl-2-methyl-phenyl)-2-oxo-ethyl]-5-(5-methoxy-pyridin-2-ylmethoxy)-2H-pyridazin-3-one]"
,25,,"COc1ccc(COc2cnn(CC(=O)c3ccc(CN4CCCC4)cc3C)c(=O)c2)nc1 [Example 9.3, 5-(5-Methoxy-pyridin-2-ylmethoxy)-2-[2-(2-methyl-4-pyrrolidin-1-ylmethyl-phenyl)-2-oxo-ethyl]-2H-pyridazin-3-one]"
,20,,"CNCc1ccc(C(=O)Cn2ncc(OCc3ccc(OC)cn3)cc2=O)c(C)c1 [Example 9.4, 5-(5-Methoxy-pyridin-2-ylmethoxy)-2-[2-(2-methyl-4-methylaminomethyl-phenyl)-2-oxo-ethyl]-2H-pyridazin-3-one]"
,24,,"CCNCc1ccc(C(=O)Cn2ncc(OCc3ccc(OC)cn3)cc2=O)c(C)c1 [Example 9.5, 2-[2-(4-Ethylaminomethyl-2-methyl-phenyl)-2-oxo-ethyl]-5-(5-methoxy-pyridin-2-ylmethoxy)-2H-pyridazin-3-one]"
,20,,"COc1ccc(COc2cnn(CC(=O)c3ccc(C(C)N(C)C)cc3C)c(=O)c2)nc1 (stereo not shown) [Example 10.1, 2-{2-[4-(1-Dimethylamino-ethyl)-2-methyl-phenyl]-2-oxo-ethyl}-5-(5-methoxy-pyridin-2-ylmethoxy)-2H-pyridazin-3-one]"
,22,,"CNC(C)c1ccc(C(=O)Cn2ncc(OCc3ccc(OC)cn3)cc2=O)c(C)c1 (stereo not shown) [Example 10.2, 5-(5-Methoxy-pyridin-2-ylmethoxy)-2-{2-[2-methyl-4-(1-methylamino-ethyl)-phenyl]-2-oxo-ethyl}-2H-pyridazin-3-one]"
,53,,"COc1ccc(COc2ccn(CC(=O)c3ccc(CN4CCC(O)CC4)cc3C)c(=O)c2)nc1 [Example 11.1, 1-{2-[4-(4-Hydroxy-piperidin-1-ylmethyl)-2-methyl-phenyl]-2-oxo-ethyl}-4-(5-methoxy-pyridin-2-ylmethoxy)-1H-pyridin-2-one]"
